Measured values published in patent US5543521A, “Compounds that modulate endothelin activity” (Immunopharmaceutics, Inc., priority 1994, dated 1996).
Square brackets hold non-standard residues; d marks the D form. Ends that are not written are not given here. Peptide text beside a SMILES is read from it. d(aIle) = CC[C@H](C)[C@@H](N)C(=O)O

Key:
[1] = biological target: T1, endothelin receptors (TE 671 cells) (Homo sapiens, UniProt P25101); assay: Endothelin Binding Inhibition Binding Test #1: inhibition of 125I-ET-1 binding to TE 671 cell membranes; settings: 125I-ET-1, TE 671 membranes, 4° C. for 16 hours, test compound 1 nM to 100 μM, triplicate
T1 construct: host or cells: TE 671 cells (membrane preparation)
T1 sequence (P25101 21-427): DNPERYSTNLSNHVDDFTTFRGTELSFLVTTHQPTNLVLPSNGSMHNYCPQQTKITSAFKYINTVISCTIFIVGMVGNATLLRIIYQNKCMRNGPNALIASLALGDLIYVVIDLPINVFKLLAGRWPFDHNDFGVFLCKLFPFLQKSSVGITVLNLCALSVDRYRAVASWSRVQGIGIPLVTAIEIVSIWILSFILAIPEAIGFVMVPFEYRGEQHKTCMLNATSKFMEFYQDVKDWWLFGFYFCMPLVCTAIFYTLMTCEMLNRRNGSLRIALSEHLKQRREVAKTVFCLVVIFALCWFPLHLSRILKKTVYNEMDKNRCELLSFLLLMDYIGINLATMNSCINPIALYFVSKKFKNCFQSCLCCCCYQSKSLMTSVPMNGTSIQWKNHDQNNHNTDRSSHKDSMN
Experimental: (§1) TE 671 cells (ATCC Accession No. HTB 139) were grown to confluence in T-175 flasks. Cells from multiple flasks were collected by scraping, pooled and centrifuged for 10 min at 190×g. The cells were resuspended in phosphate buffered saline (PBS) containing 10 mM EDTA using a Tenbroeck homogenizer. The suspension was centrifuged at 4° C. at 57,800×g for 15 min, the pellet was resuspended in 5 ml of buffer A (5 mM HEPES buffer, pH 7.4 containing aprotinin (100 KIU/ml)) and then frozen and thawed once. 5 ml of Buffer B (5 mM HEPES Buffer, pH 7.4 containing 10 mM MnCI2 and 0.001% deoxyribonuclease Type 1) was added, the suspension mixed by inversion and then incubated at 37° C. for 30 minutes. The mixture was centrifuged at 57,800×g as described above, the pellet washed twice with buffer A and then resuspended in buffer C (30 mM HEPES buffer, pH 7.4 containing aprotinin (100 KIU/ml) to give a final protein concentration of 2 mg/ml and stored at -70° C. until use.
The membrane suspension was diluted with binding buffer (30 mM HEPES buffer, pH 7.4 containing 150 mM NaCl, 5 mM MgCl2, 0.5% Bacitracin, 0.1% BSA) to a concentration of 6 μg/100 μl. […] The supernatant, containing unbound radioactivity, was decanted and the pellet counted on a Genesys multiwell gamma counter. The degree of inhibition of binding (D) was calculated according to the following equation: [formula] […]

human ETB receptor = assay: Endothelin Inhibition Binding Test #2: membranes of COS7 cells expressing the human ETB receptor; settings: 125I-ET-1, COS7 membranes expressing human ETB receptor
Experimental: COS7 cells were transfected with DNA encoding the ETB receptor, The resulting cells, which express the human ETB receptor, were grown to confluence in T-150 flasks. Membrane was prepared as described above. The binding assay was performed as described above using the membrane preparation diluted with binding buffer to a concentration of 1 μg/100 μl.
as §1, with “The COS7 cells, described above, that had been transfected with DNA encoding the ETB receptor and express the human ETB receptor were” for “TE 671 cells (ATCC Accession No. HTB 139) were”, “10 min.” for “10 min”, “A (5mM” for “A (5 mM”, “mM MnCl2” for “mM MnCI2”, “2 mg/ml. […]” for “2 mg/ml and stored at -70° C. until use.”

isolated vascular strips = settings: read-out: EC50, contractile agent; cited from earlier work
[2] = test system: ETB receptors (non-cardiovascular tissues); settings: kidney, adrenal gland, cerebellum; cited from earlier work
[3] = test system: ETA receptors (cardiovascular tissues); settings: cited from earlier work
vasoconstriction = settings: cited from earlier work
[4] = biological target: cardiovascular receptors (aortic smooth muscle membrane); settings: read-out: IC50, inhibition of 125 endothelin-1 binding; cited from earlier work
[5] = biological target: cardiovascular receptors (ventricle membranes); settings: read-out: IC50, inhibition of 125 endothelin-1 binding; cited from earlier work
[6] = test system: cardiovascular receptors (cultured aortic smooth muscle cells); settings: read-out: IC50, inhibition of 125 endothelin-1 binding; cited from earlier work
endothelinB receptor = settings: endothelinB receptor-rich tissues; cited from earlier work
[7] = test system: porcine pulmonary arteries; settings: cited from earlier work
[8] = test system: ETB receptors (cerebral tissue); settings: cited from earlier work
endothelin-1 = settings: cited from earlier work

Compound: O=C(O)C1CCC2C(=O)NC(Cc3c[nH]c4ccccc34)C(=O)N12 (stereo not shown) [3-(3-indolylmethyl)-1,4-diaza-2,5-dioxobicyclo[4.3.0]nonane-9-carboxylic acid]
- IC50 [1]: 22.5 µM
- activity in the second binding inhibition assay (human ETB receptor): no detectable activity

Compound: endothelin-1: potent twenty-one amino acid peptide vasoconstrictor
- EC50 (isolated vascular strips): 0.0004 µM
- inhibition of 125 endothelin-1 binding [2]: inhibited to the same extent by endothelin-1 and endothelin-3
- potency of inhibition of 125 endothelin-1 binding relative to endothelin-3 [3]: 40-700
- vasoconstriction potency order (vasoconstriction): endothelin-2>endothelinol>endothelin-3

Compound: CC[C@H](C)[C@H]1NC(=O)[C@H](C)NC(=O)[C@@H](CCC(=O)O)NC(=O)[C@@H](Cc2c[nH]c3ccccc23)NC(=O)[C@H](CC(C)C)NC1=O [BE-18257B, c(D-Glu-L-Ala-allo-D-Ile-L-Leu-D-Trp)] (cyclo(A[d(aIle)]L[dW][dE]))
- IC50 [4]: 1.4 µM
- IC50 [5]: 0.8 µM
- IC50 [6]: 0.5 µM
- concentration up to which it fails to inhibit binding (endothelinB receptor): > 100 µM

Compound: (Trp^6,Leu^7) endothelin-1 (CSCSSWLDKECVYFCHLDIIW; ends and bridges not checked; cysteine pairing not given here; UniProt P20800 49-69, looked up) [endothelin-2, endothelin isopeptide]
- vasoconstriction potency order (vasoconstriction): endothelin-2>endothelinol>endothelin-3

Compound: [Ala^1,3,11,15 ]endothelin-1: endothelin-1 analog in which the four cys residues are replaced with Ala (ASASSLMDKEAVYFAHLDIIW; Endothelin-1; UniProt P05305 53-73, looked up, variant C1A C3A C11A C15A)
- relaxation of pre-contracted arteries [7]: dose-dependent relaxation of pre-contracted porcine pulmonary arteries
- inhibition of 125 ET-1 binding [8]: inhibits ^125 ET-1 binding to cerebral tissue

Compound: CC(C)C[C@@H]1NC(=O)[C@@H](C(C)C)NC(=O)[C@@H]2CCCN2C(=O)[C@@H](CC(=O)O)NC(=O)[C@@H](Cc2c[nH]c3ccccc23)NC1=O [BQ-123, c(D-Asp-Pro-D-Val-Leu-D-Trp)] (cyclo(L[dW][dD]P[dV]))
- activity as endothelin-1 antagonists (endothelin-1): exhibit activity as endothelin-1 antagonists

Compound: (Thr^2, Phe^4, Thr^5, Tyr^6, Lys^7, Tyr^14) endothelin-1 [endothelin-3]
- inhibition of 125 endothelin-1 binding [2]: inhibited to the same extent by endothelin-1 and endothelin-3
- vasoconstriction potency order (vasoconstriction): endothelin-2>endothelinol>endothelin-3
